Reference: patent publication US20240228499A1, “MASP-2 INHIBITORS AND METHODS OF USE” (Omeros Corporation, priority 2022, published 2024)
Where a name gives a salt, the structure may show the parent alone.

Columns and labels:
[1] = biological target: T1, MASP-2 (CCP1-CCP2-SP) (Homo sapiens, UniProt O00187); test: Enzymatic assay for MASP-2 inhibitory activity (fluorogenic substrate); assay type: biochemical; settings: room temperature, 20 mM Hepes pH 7.4, 20 min
T1 construct: 15 μL of Enzyme MASP-2 (CCP1-CCP2-SP) in Assay Buffer
Protocol: The MASP-2 assay utilizes a fluorogenic substrate, based on the cleavage site for its natural substrate C2. The assay was run at room temperature in an assay buffer containing 20 mM HEPES, pH 7.4, 140 mM NaCl and 0.1% Tween 20. Assay parameters were adjusted such that the assay was linear with respect to time, enzyme, and substrate concentrations. Under the optimized assays conditions, IC50 values were equivalent to Ki values, except in the few cases of “tight binding” inhibitors. Cases of “tight binding” or possible “slow binding” inhibitors were handled by the methods described in Copeland R. A. (2013) Evaluation of Enzyme Inhibitors in Drug Discovery. 2nd Ed., John Wiley and Sons, Inc., Chapters 5-7.
The MASP-2 assay protocol was carried out as follows. Test compounds were serially diluted in DMSO and then 100 nL of each dilution was transferred to the assay plate(s). 10 μL of Assay Buffer was added, followed by 15 μL of Enzyme MASP-2 (CCP1-CCP2-SP) in Assay Buffer. 15 μL of Substrate in Assay Buffer was then added and the mixture was mixed to start the reaction. After 20 min at room temperature, 15 μL of a stop solution (0.1 M acetic acid) was added, the sample was mixed, and the plates were read on a SpectraMax i3× Microplate Reader with the data exported as an Excel file. Each assay plate included a “no inhibitor” (DMSO only) control, a “no enzyme” control, and a reference inhibitor control. % Activity values=100*(average test comp. fluorescence−average “no enzyme” fluorescence)/(average “DMSO only” fluorescence−average “no enzyme” fluorescence). IC50 and Ki replicate values were very reproducible, with values well within +2-fold.

[2] = biological target: T2, human a-thrombin (Homo sapiens, UniProt P00734); test: Enzymatic assay for thrombin (fluorogenic peptide substrate Boc-VPR-AMC); assay type: biochemical; settings: room temperature, 20 mM Hepes pH 7.4, 20 min
T2 construct: enzyme (human a-thrombin (BioPharm® Lab.)); purchased BioPharm Lab
Protocol: The thrombin assay utilizes a fluorogenic peptide substrate (Boc-VPR-AMC (R&D Systems) and was run at room temperature in an assay buffer containing 20 mM Hepes, pH 7.4, 140 mM NaCl and 0.1% Tween 20. Assay parameters were adjusted such that the assay was linear with respect to time, enzyme, and substrate concentrations. Under these optimized assays conditions, IC50 values were equivalent to Ki values, except in a few cases of “tight binding” inhibitors. Cases of “tight binding” or possible “slow binding” inhibitors were handled by the methods described in Copeland R.A. (2013) Evaluation of Enzyme Inhibitors in Drug Discovery. 2nd Ed. John Wiley and Sons, Inc., Chapters 5-7.
The thrombin assay protocol was carried out as follows. Test compounds were serially diluted in DMSO and then 100 nL of each dilution was transferred to the assay plate(s). 10 μL of Assay Buffer was added, followed by 15 μL of enzyme (human a-thrombin (BioPharm® Lab.)) in assay buffer. 15 μL of substrate in assay buffer was then added and the sample mixed to start the reaction. After 20 min at room temperature, 15 μL of a stop solution (0.1 M acetic acid) was added, the sample was mixed, and the plates were read on a SpectraMax® i3× Microplate Reader with the data exported as Excel files. Each assay plate included a “no inhibitor” (DMSO only) control, a “no enzyme” control, and a reference inhibitor control. % Activity values=100*(ave. test comp. fluorescence−ave. “no enz” fluorescence)/(ave. “DMSO only” fluorescence−ave. “no enz” fluorescence). IC50 and Ki values were very reproducible, with values falling well within +2-fold.

T1 sequence (O00187 287-686 limits assumed): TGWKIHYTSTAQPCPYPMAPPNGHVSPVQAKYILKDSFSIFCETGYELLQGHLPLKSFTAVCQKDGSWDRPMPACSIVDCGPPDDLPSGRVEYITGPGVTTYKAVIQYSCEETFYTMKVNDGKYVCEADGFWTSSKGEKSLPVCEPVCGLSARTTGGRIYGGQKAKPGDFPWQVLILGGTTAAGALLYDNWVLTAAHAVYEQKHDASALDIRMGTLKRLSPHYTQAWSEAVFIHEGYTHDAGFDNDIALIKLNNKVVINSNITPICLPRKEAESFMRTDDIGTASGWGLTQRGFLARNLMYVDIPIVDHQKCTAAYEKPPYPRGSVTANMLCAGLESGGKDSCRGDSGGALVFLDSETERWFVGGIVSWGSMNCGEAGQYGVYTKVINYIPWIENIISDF

| Compound | Ki [1] | Ki [2] |
| --- | --- | --- |
| Cc1nc(N)ccc1CNC(=O)[C@@H]1CCc2ncc(NCc3cccc(C(F)(F)F)c3F)c(=O)n21 [Compound 42, (S)-N-((6-amino-2-methylpyridin-3-yl)methyl)-3-((2-fluoro-3-(trifluoromethyl)benzyl)amino)-4-oxo-4,6,7,8-tetrahydro-pyrrolo[1,2-a]pyrimidine-6-carboxamide, di-trifluoroacetate] | < 500 nM | 500 to 2500 nM |
| Cc1nc(N)ccc1CNC(=O)[C@@H]1CCc2ncc(NCc3ccc(C(F)(F)F)cc3F)c(=O)n21 [Compound 43, (S)-N-((6-amino-2-methylpyridin-3-yl)methyl)-3-((2-fluoro-4-(trifluoromethyl)benzyl)amino)-4-oxo-4,6,7,8-tetrahydro-pyrrolo[1,2-a]pyrimidine-6-carboxamide, di-trifluoroacetate] | < 500 nM | 2500 to 10000 nM |
| COc1cc(CNc2cnc3n(c2=O)[C@H](C(=O)NCc2ccc(N)nc2C)CC3)ccc1C [Compound 45, (S)-N-((6-amino-2-methylpyridin-3-yl)methyl)-3-((3-methoxy-4-methylbenzyl)amino)-4-oxo-4,6,7,8-tetrahydropyrrolo[1,2-a]pyrimidine-6-carboxamide, trifluoroacetate] | < 500 nM | 500 to 2500 nM |
| Cc1nc(N)ccc1CNC(=O)[C@@H]1CCc2ncc(NCc3cc(F)cc(C(F)(F)F)c3)c(=O)n21 [Compound 47, (S)-N-((6-amino-2-methylpyridin-3-yl)methyl)-3-((3-fluoro-5-(trifluoromethyl)benzyl)amino)-4-oxo-4,6,7,8-tetrahydro-pyrrolo[1,2-a]pyrimidine-6-carboxamide, di-trifluoroacetate] | < 500 nM | 500 to 2500 nM |
| COc1cccc(CNc2cnc3n(c2=O)[C@H](C(=O)NCc2ccc(N)nc2C)CC3)c1C [Compound 48, (S)-N-((6-amino-2-methylpyridin-3-yl)methyl)-3-((3-methoxy-2-methylbenzyl)amino)-4-oxo-4,6,7,8-tetrahydropyrrolo[1,2-a]pyrimidine-6-carboxamide, trifluoroacetate] | < 500 nM | 500 to 2500 nM |
| COc1cc(F)cc(CNc2cnc3n(c2=O)[C@H](C(=O)NCc2ccc(N)nc2C)CC3)c1 [Compound 49, (S)-N-((6-amino-2-methylpyridin-3-yl)methyl)-3-((3-fluoro-5-methoxybenzyl)amino)-4-oxo-4,6,7,8-tetrahydropyrrolo[1,2-a]pyrimidine-6-carboxamide, di-trifluoroacetate] | < 500 nM | < 500 nM |
| Cc1cc(CNc2cnc3n(c2=O)[C@H](C(=O)N[C@H](C)c2ccc(N)nc2)CC3)cc(C(F)(F)F)c1 [Compound 51, (S)—N—((R)-1-(6-aminopyridin-3-yl)ethyl)-3-((3-methyl-5-(trifluoromethyl)benzyl)amino)-4-oxo-4,6,7,8-tetrahydropyrrolo[1,2-a]pyrimidine-6-carboxamide. DI-trifluoroacetate] | < 500 nM | > 25000 nM |
| Cc1nc(N)ccc1CNC(=O)[C@@H]1CCc2ncc(NCc3ccc(F)cc3)c(=O)n21 [Compound 52, (S)—N-((6-amino-2-methylpyridin-3-yl)methyl)-3-((4-fluorobenzyl)amino)-4-oxo-4,6,7,8-tetrahydropyrrolo[1,2-a]pyrimidine-6-carboxamide] | < 500 nM | 2500 to 10000 nM |
| Cc1cc(Cl)cc(CNc2cnc3n(c2=O)[C@H](C(=O)NCc2ccc(N)nc2C)CC3)c1 [Compound 55, (S)-N-((6-amino-2-methylpyridin-3-yl)methyl)-3-((3-chloro-5-methylbenzyl)amino)-4-oxo-4,6,7,8-tetrahydropyrrolo[1,2-a]pyrimidine-6-carboxamide] | < 500 nM | < 500 nM |
| Cc1nc(N)ccc1CNC(=O)[C@@H]1CCc2ncc(NCc3cc(F)cc(Cl)c3)c(=O)n21 [Compound 56, (S)—N-((6-amino-2-methylpyridin-3-yl)methyl)-3-((3-chloro-5-fluorobenzyl)amino)-4-oxo-4,6,7,8-tetrahydropyrrolo[1,2-a]pyrimidine-6-carboxamide] | < 500 nM | 500 to 2500 nM |
| CCOc1cccc(CNc2cnc3n(c2=O)[C@H](C(=O)NCc2ccc(N)nc2C)CC3)c1 [Compound 57, (S)—N-((6-amino-2-methylpyridin-3-yl)methyl)-3-((3-ethoxybenzyl)amino)-4-oxo-4,6,7,8-tetrahydropyrrolo[1,2-a]pyrimidine-6-carboxamide] | < 500 nM | 500 to 2500 nM |
| Cc1nc(N)ccc1CNC(=O)[C@@H]1CCc2ncc(NCc3cccc(Cl)c3)c(=O)n21 [Compound 58] | < 500 nM | 500 to 2500 nM |
| Cc1nc(N)ccc1CNC(=O)[C@@H]1CCc2ncc(NCc3ccccc3)c(=O)n21 [Compound 59] | < 500 nM | 2500 to 10000 nM |
| Cc1cccc(CNc2cnc3n(c2=O)[C@H](C(=O)NCc2ccc(N)nc2C)CC3)c1 [Compound 60, (S)—N-((6-amino-2-methylpyridin-3-yl)methyl)-3-((3-methylbenzyl)amino)-4-oxo-4,6,7,8-tetrahydropyrrolo[1,2-a]pyrimidine-6-carboxamide] | < 500 nM | 500 to 2500 nM |
| Cc1ccc(CNc2cnc3n(c2=O)[C@H](C(=O)NCc2ccc(N)nc2C)CC3)cc1 [Compound 61] | < 500 nM | 2500 to 10000 nM |
| Cc1nc(N)ccc1CNC(=O)[C@@H]1CCc2ncc(NCc3cccc(F)c3C)c(=O)n21 [Compound 63] | < 500 nM | 500 to 2500 nM |
| Cc1cc(Cl)cc(CNc2cnc3n(c2=O)[C@H](C(=O)NCc2cccnc2)CC3)c1 [Compound 66] | 500 to 2500 nM | > 25000 nM |
| CCN(Cc1cc(C)cc(OC)c1)c1cnc2n(c1=O)[C@H](C(=O)NCc1ccc(N)nc1C)CC2 [Compound 67, (S)—N-((6-amino-2-methylpyridin-3-yl)methyl)-3-(ethyl(3-methoxy-5-methylbenzyl)amino)-4-oxo-4,6,7,8-tetrahydropyrrolo[1,2-a]pyrimidine-6-carboxamide] | 500 to 2500 nM | 10000 to 25000 nM |
| Cc1nc(N)ccc1CNC(=O)[C@@H]1CCc2ncc(NCc3ccccc3F)c(=O)n21 [Compound 68] | < 500 nM | 2500 to 10000 nM |
| Cc1nc(N)ccc1CNC(=O)[C@@H]1CCc2ncc(NCc3cccc(C(F)F)c3)c(=O)n21 [Compound 71, (S)—N-((6-amino-2-methylpyridin-3-yl)methyl)-3-((3-(difluoromethyl)benzyl)amino)-4-oxo-4,6,7,8-tetrahydropyrrolo[1,2-a]pyrimidine-6-carboxamide] | < 500 nM | 500 to 2500 nM |
| Cc1nc(N)ccc1CNC(=O)[C@@H]1CCc2ncc(NCc3cccc(C#N)c3)c(=O)n21 [Compound 73, (S)-N-((6-amino-2-methylpyridin-3-yl)methyl)-3-((3-cyanobenzyl)amino)-4-oxo-4,6,7,8-tetrahydropyrrolo[1,2-a]pyrimidine-6-carboxamide] | < 500 nM | 500 to 2500 nM |
| COc1cc(Cl)cc(CNc2cnc3n(c2=O)[C@H](C(=O)NCc2ccc(N)nc2C)CC3)c1 [Compound 74, (S)-N-((6-amino-2-methylpyridin-3-yl)methyl)-3-((3-chloro-5-methoxybenzyl)amino)-4-oxo-4,6,7,8-tetrahydropyrrolo[1,2-a]pyrimidine-6-carboxamide] | < 500 nM | < 500 nM |
| COc1cc(Cl)cc(CNc2cnc3n(c2=O)[C@@H](C(=O)N[C@H](C)c2ccc(N)nc2)CC3)c1 [Compound 77, (R)-N-((R)-1-(6-aminopyridin-3-yl)ethyl)-3-((3-chloro-5-methoxybenzyl)amino)-4-oxo-4,6,7,8-tetrahydropyrrolo[1,2-a]pyrimidine-6-carboxamide] | < 500 nM | > 25000 nM |
| Cc1cc(C)cc(CNc2cnc3n(c2=O)[C@@H](C(=O)NCc2ccc(N)nc2C)CC3)c1 [Compound 78] | 2500 to 10000 nM | > 25000 nM |
| Cc1cc(C)cc(CNc2cnc3n(c2=O)[C@@H](C(=O)NCc2ccc(N)nc2)CC3)c1 [Compound 79] | < 500 nM | > 25000 nM |
